≈ marks a conversion by molar mass, not a printed value. Where “and” joins values, the source holds several entries; their conditions need not be identical. Equal entries are not always repeated. Where two headings read alike, the source gives them in different places.
What was measured:
[1] = test system: 60-resistant (60-r) isolates of E. coli W3110; assay: microbe, parasite or virus in culture; format: cell-based, Escherichia coli
Description: (§1) MIC was determined by broth microdilution. Single-colony cultures were grown to exponential phase (OD600 of 0.5) aerobically at 37 °C. In case of strains from the Keio collection, 50 µg ml^−1 kanamycin was supplemented to the media to ascertain a homogeneous population. The bacterial suspensions were diluted 100-fold in CAMHB and 50 µl was added to a twofold serial dilution series of test compounds (50 µl per well) in polypropylene 96-well microtitre plates to reach a volume of 100 µl. The plates were sealed with breathable membranes and incubated overnight at 37 °C with constant shaking (600 r.p.m.). The MIC was determined as the lowest concentration at which no visible bacterial growth was observed as compared with the inoculum controls from the median of a minimum of triplicates.
The plates were incubated at 37 °C and checked for growth after 24 and 48 h. […] Nine colonies with an increased MIC were selected for further analysis and stored as glycerol stocks.

E. coli W3110 [2] = assay: MIC by broth microdilution; format: cell-based, Escherichia coli
Procedure, shortened: (§2)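 Exponential-phase cultures (OD600 0.5, 37 °C aerobic), diluted 100-fold in CAMHB, were added to twofold compound dilution series. Keio strains grown with 50 µg ml^−1 kanamycin. Plates incubated overnight at 37 °C, shaking at 600 r.p.m.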

E. coli ATCC 25922 = assay: MIC by broth microdilution; format: cell-based; conditions: Escherichia coli, ATCC25922; read-out: MIC E. coli ATCC 25922
Description: as §1, with “r.p.m.).” for “r.p.m.). The MIC was determined as the lowest concentration at which no visible bacterial growth was observed as compared with the inoculum controls from the median of a minimum of triplicates.”

HEK293T = assay: Cytotoxicity assay (MTT); format: cell-based, human; conditions: Homo sapiens, HEK-293T, 24 h, MTT
Procedure, shortened: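 HEK293T cells, maintained at 37 °C and 7% CO2 in Dulbecco’s modified Eagle medium with GlutaMax, antibiotics and serum, were plated in clear 96-well plates in 100 µl medium containing 1% fetal bovine serum and left 24 h to attach. After 24 h compound exposure, MTT (0.40 mg ml^−1) was added for 2 h. Formazan was dissolved in 100 µl DMSO and absorbance measured at 570 nm. Background-corrected IC50 values came from variable-slope non-linear fits.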

HepG2 = assay: Cytotoxicity assay (MTT); format: cell-based, human; conditions: Homo sapiens, HepG2, 24 h, MTT, 24 h
[3] = test system: E. coli BW25113 and single-gene knockouts; assay: MIC on E. coli strains of the Keio collection; format: cell-based, Escherichia coli; conditions: Escherichia coli, BW25113, read-out: MIC E. coli BW25113, parent strain
Description: as §1

P. aeruginosa ATCC 27853 = assay: MIC by broth microdilution; format: cell-based; conditions: Pseudomonas aeruginosa, ATCC27853; read-out: MIC P. aeruginosa ATCC 27853
Description: as §1

[4] = test system: S. aureus ATCC 29213 / ATCC BAA1717; assay: MIC by broth microdilution; format: cell-based; conditions: Staphylococcus aureus
Description: as §1

A. baumannii ATCC BAA747 = assay: MIC by broth microdilution; format: cell-based; conditions: Acinetobacter baumannii, ATCCBAA747; read-out: MIC A. baumannii ATCC BAA747
Description: as §1

K. pneumoniae ATCC 29665 = assay: MIC by broth microdilution; format: cell-based, Klebsiella pneumoniae; conditions: Klebsiella pneumoniae, ATCC29665, read-out: MIC K. pneumoniae ATCC 29665
Procedure, shortened: as §2

E. coli W3110 [5] = assay: H-89 derivatives rescreen, 50 µM; format: cell-based; conditions: Escherichia coli, H-89 derivative rescreen, highest 50 µM
Description: From glycerol stocks, E. coli W3110 was cultured on blood agar plates (PB5039A, Thermo Scientific) by overnight (18 ± 2 h) aerobic incubation at 37 °C. A single colony was transferred to tryptic soy broth (TSB, 02-200-500, Scharlab). The cultures were grown to exponential phase (OD600 of 0.5) at 37 °C. The bacterial suspensions were diluted 200-fold in cation-adjusted Mueller–Hinton broth (CAMHB) and 99 µl was added to a library of test compounds (1 µl 10 mM DMSO stock, per well in technical duplicates) in polypropylene 96-well microtitre plates to reach a volume of 100 µl and a final concentration of 100 µM for each test compound and a maximum of 1% DMSO. […] Screening hits were selected from the wells where no visible bacterial growth was observed, as compared with the inoculum controls containing 1% DMSO. The follow-up screen of H-89 derivatives was performed under similar conditions with a final concentration of 50 µM.

E. coli W3110 [6] = assay: Time-kill assay
Description: From glycerol stocks, bacterial strains were cultured on blood agar plates by overnight incubation at 37 °C. Subsequently, a single colony was cultured in TSB overnight at 37 °C. The culture was diluted 100-fold in fresh CAMHB and grown until early exponential phase (OD600 of 0.25) followed by 100-fold dilution in media. The culture was split in separate culture tubes containing 2 ml. […] The supernatant was discarded and pellets were washed once with filter-sterilized PBS, then resuspended in an equal volume of fresh buffer and samples were tenfold serially diluted until a 10^5 dilution. Then, 10 µl of the appropriate dilutions were inoculated on LB agar plates in technical duplicates, subsequently allowed to evaporate and incubated at 37 °C for 18 h. The colonies were counted and used to calculate the colony forming unit (c.f.u.) per ml remaining in the original culture by taking the dilution factors into account. The experiment was performed in biological duplicates.

[7] = Escherichia coli, E. coli W3110 60-r1
[8] = Escherichia coli, E. coli W3110 60-r3
[9] = Escherichia coli, E. coli W3110 60-r6
[10] = Escherichia coli, W3110, read-out: MIC E. coli W3110
[11] = WT, broth microdilution, read-out: MIC E. coli W3110

Molecule: CC(C)(O/N=C(\C(=O)N[C@@H]1C(=O)N2C(C(=O)[O-])=C(C[n+]3ccccc3)CS[C@H]12)c1csc(N)n1)C(=O)O [Ceftazidime]
- MIC [1, 7]: 0.375 µM and 0.2 µg/mL
- MIC [1, 8]: 0.75 µM and 0.4 µg/mL
- MIC [1, 9]: 0.75 µM and 0.4 µg/mL
- MIC (E. coli W3110 [2]; Escherichia coli, W3110): 0.4 µg/mL
- MIC (E. coli W3110 [2]; [10]): 0.75 µM

Molecule: O=C(N[C@H](CO)[C@H](O)c1ccc([N+](=O)[O-])cc1)C(Cl)Cl [Chloramphenicol]
- MIC [1, 7]: 12.4 µM and 4 µg/mL
- MIC [1, 8]: 12.4 µM and 4 µg/mL
- MIC [1, 9]: 12.4 µM and 4 µg/mL
- MIC (E. coli W3110 [2]; Escherichia coli, W3110): 4 µg/mL
- MIC (E. coli W3110 [2]; [10]): 12.4 µM

Molecule: O=S(=O)(NCCNCc1ccc(-c2cccnc2)cc1)c1cccc2cnccc12 [Compound 1]
- MIC (E. coli ATCC 25922): 25 µM (≈ 10.5 µg/mL)
- MIC [1, 7]: > 100 µM
- MIC [1, 8]: 100 µM (≈ 41.9 µg/mL)
- MIC [1, 9]: > 100 µM
- IC50 (HEK293T): > 50 µM
- IC50 (HepG2): > 50 µM
- MIC (E. coli W3110 [2]; Escherichia coli, W3110, WT, broth microdilution, read-out: MIC E. coli W3110): 6.25 µM
- MIC (E. coli W3110 [2]; Escherichia coli, W3110, follow-up of the 12 library hits, read-out: MIC E. coli): 6.25 µM
- MIC (E. coli W3110 [2]; Escherichia coli, W3110, read-out: MIC E. coli): 2.6 µg/mL
- MIC [3]: 12.5 µM (≈ 5.23 µg/mL)
- MIC (P. aeruginosa ATCC 27853): > 50 µM
- MIC ([4]; read-out: MIC S. aureus ATCC 29213): > 50 µM
- MIC ([4]; read-out: MIC S. aureus ATCC BAA1717): > 50 µM
- MIC (A. baumannii ATCC BAA747): > 50 µM
- MIC (K. pneumoniae ATCC 29665): 12.5 µM (≈ 5.23 µg/mL)
- MIC (E. coli W3110 [5]): 6.25 µM (≈ 2.62 µg/mL)

Molecule: C[C@@H](O)[C@H]1C(=O)N2C(C(=O)O)=C(SCCN=CN)C[C@H]12 [Imipenem]
- MIC [1, 7]: 0.75 µM and 0.2 µg/mL
- MIC [1, 8]: 0.375 µM and 0.1 µg/mL
- MIC [1, 9]: 0.375 µM and 0.1 µg/mL
- MIC (E. coli W3110 [2]; Escherichia coli, W3110): 0.1 µg/mL
- MIC (E. coli W3110 [2]; [10]): 0.375 µM

Molecule: C[C@@H](O)[C@H]1C(=O)N2C(C(=O)O)=C(S[C@@H]3CN[C@H](C(=O)N(C)C)C3)[C@H](C)[C@H]12 [Meropenem]
- MIC [1, 7]: 0.09 µM and 0.04 µg/mL
- MIC [1, 8]: 0.05 µM and 0.02 µg/mL
- MIC [1, 9]: 0.05 µM and 0.02 µg/mL
- MIC (E. coli W3110 [2]; Escherichia coli, W3110): 0.02 µg/mL
- MIC (E. coli W3110 [2]; [10]): 0.05 µM

Molecule: COc1cc(Cc2cnc(N)nc2N)cc(OC)c1OC [TMP, trimethoprim]
- MIC [1, 7]: 0.375 µM and 0.16 µg/mL
- MIC [1, 8]: 0.18 µM and 0.08 µg/mL
- MIC [1, 9]: 0.375 µM and 0.16 µg/mL
- MIC (E. coli W3110 [2]; Escherichia coli, W3110): 0.16 µg/mL
- MIC (E. coli W3110 [2]; [10]): 0.375 µM
- time kill kinetics, bacterial count (E. coli W3110 [6]; 4xMIC, 0.5 h, n = 1 and n = 2): 5.161 and 5.204
- time kill kinetics, bacterial count (E. coli W3110 [6]; 4xMIC, 1 h): 5.041 and 5.342
- time kill kinetics, bacterial count (E. coli W3110 [6]; 4xMIC, 2 h): 5.322 and 4.954
- time kill kinetics, bacterial count (E. coli W3110 [6]; 4xMIC, 4 h): 4.255 and 4.204
- time kill kinetics, bacterial count (E. coli W3110 [6]; 4xMIC, 8 h): 2.845 and 2.602
- time kill kinetics, bacterial count (E. coli W3110 [6]; 4xMIC, 24 h): 2
- time kill kinetics, bacterial count (E. coli W3110 [6]; 8xMIC, 0.5 h): 6.217 and 6.23
- time kill kinetics, bacterial count (E. coli W3110 [6]; 8xMIC, 1 h): 4.978 and 5.097
- time kill kinetics, bacterial count (E. coli W3110 [6]; 8xMIC, 2 h): 5.176 and 4.929
- time kill kinetics, bacterial count (E. coli W3110 [6]; 8xMIC, 4 h): 3.544 and 3.423
- time kill kinetics, bacterial count (E. coli W3110 [6]; 8xMIC, 8 h): 2.699
- time kill kinetics, bacterial count (E. coli W3110 [6]; 8xMIC, 24 h): 2.301 and 2

Molecule: Colistin
- MIC ([1]; E. coli W3110 60-r1): 0.375 µM and 1 µg/mL
- MIC ([1]; E. coli W3110 60-r3): 0.375 µM and 1 µg/mL
- MIC ([1]; E. coli W3110 60-r6): 0.19 µM and 0.5 µg/mL
- MIC (E. coli W3110 [2]; E. coli W3110): 0.5 µg/mL
- MIC (E. coli W3110 [2]; [11]): 0.19 µM

Molecule: Neomycin
- MIC ([1]; E. coli W3110 60-r1): 0.75 µM and 0.5 µg/mL
- MIC ([1]; E. coli W3110 60-r3): 1.5 µM and 1 µg/mL
- MIC ([1]; E. coli W3110 60-r6): 0.75 µM and 0.5 µg/mL
- MIC (E. coli W3110 [2]; E. coli W3110): 1 µg/mL
- MIC (E. coli W3110 [2]; [11]): 1.5 µM
